Source: patent US6444850B1, “Fungicidial compounds having a fluorovinyloxphyenyl moiety and process for the preparation thereof” (priority 1997, dated 2002)

Key:
[1] = test system: Pyricularia oryzae Carvara KA301; assay type: in vivo; details: for C. V. (%) RCB: 50 ppm, control value, rice blast; for C. V. (%) Fungicidal Activities against RCB at 10 ppm / C. V. (%) Fungicidal Activities against RCB at 10 ppm (TABLE 6): sprayed on Nakdong rice plant, control value from lesion area
Botrytis cinerae = test: Fungicidal activity against cucumber gray mold rot (CGM) disease; assay type: in vivo; details: 50 ppm, control value
Procedure: Botrytis cinerae, which was isolated from cucumber infected thereby, was inoculated on a PDA agar medium and cultured under a 12L/12D cycle at 25° C. for 15 days to form spore. The spores were scraped, filtered through a gauze and then suspended in potato dextrose liquid medium at a concentration of 1×10^6 spore/ml. The spore suspension was sprayed on a cucumber plant having one leaf. The cucumber plant was held in a humidified room at 20° C. for 3 days. L.A. on a leaf was measured to calculate an C.V.

Phytophthora infestans = assay type: in vivo; details: 50 ppm; control value, tomato late blight
Rhizoctonia solani AG-1 = test: Fungicidal activity against rice sheath blight (RSB) disease; details: 50 ppm, control value
Procedure: 50 ml of the resulting solution was sprayed on leaves of a host plant. The plant was kept at room temperature for 24 hours to let the solvent evaporate, and then, a pathogenic fungus was inoculated thereonto. The plant was held in a humidity chamber for 24 hours, transferred to an plant growth room kept at 20 to 27° C. and a relative humidity of 60 to 80% and kept to induce disease. Subsequently, the lesion area(L.A.) attacked by the pathogenic fungus was measured according to a method of Cho(Cho, K. Y., Search Report by Korea Research Institute of Chemical Technology (1989))”. This procedure was repeated twice for each test. 10% Acetone solution containing 250 ppm of Tween-20 was used as a control.
The fungicidal activity of the compound of the present invention is repressed by a control value (C.V.) calculated as; [formula]
Rhizoctonia solani AG-1 was cultured on a PDA medium(potato 200 g, dextrose 20 g, agar 20 g and distilled water 1 l) for 3 days and the agar disc (diameter 0.6 cm) was inoculated and cultured on sterilized wheat bran medium in a 1 l bottle at 26 to 28° C. for 7 days. A mycelial mass was ground using a homogenizer, inoculated uniformly on soil of a pot wherein a Nakdong rice plant having 2 or 3 leaves and an height of 5 cm grew, and kept in humidity polyvinyl chamber for 5 days to induce RSB. L.A. on a leaf sheath was measured to calculate an C.V.

Puccinia recondita = test: Fungicidal activity against wheat leaf rust (WLR) disease; assay type: in vivo; details: for C. V. (%) WLR: 50 ppm, control value, wheat leaf rust; for C. V. (%), Fungicidal Activities against WLB at 10 ppm: Table 8 (Test Example 5)
Erysiphae graminis = test: Fungicidal activity against barley powdery mildew (BPM) disease; assay type: in vivo; details: for C. V. (%) BPM: 50 ppm, control value, barley powdery mildew; for C. V. (%), Fungicidal activities against TLB at 10 ppm: Table 9 (Test Example 6)
Procedure: Erysiphae graminis was subcultured on a wheat plant in a laboratory. 15 g of barley seeds was sowed in a pot (diameter 6.5 cm) and cultured in a greenhouse for 7 days to obtain a barley plant having only a primary leaf. The barley plant was inoculated with spores by shaking thereover another plant infected by BPM. The inoculated barley plant was cultured in an incubator maintained at a temperature of 22 to 24° C. and a relative humidity of 50% for 7 days to induce BPM. L.A. on the leaf was measured to calculate an C.V.

## COC(=O)C(=CSC)c1ccccc1COc1cccc(OC(F)=Cc2cc(C)cc(C)c2)c1 [Compound 20]
[1]
  C. V. (%) RCB: 73%
Botrytis cinerae
  C. V. (%) CGM: 0%
Phytophthora infestans
  C. V. (%) TLB: 46%
Rhizoctonia solani AG-1
  C. V. (%) RSB: 35%
Puccinia recondita
  C. V. (%) WLR: 83%
Erysiphae graminis
  C. V. (%) BPM: 93%

## COC=C(C(=O)OC)c1ccccc1COc1cccc(OC(F)=Cc2cc(C)c(C)cc2C)c1 [Compound 21]
[1]
  C. V. (%) RCB: 93%
Botrytis cinerae
  C. V. (%) CGM: 33%
Phytophthora infestans
  C. V. (%) TLB: 44%
Rhizoctonia solani AG-1
  C. V. (%) RSB: 90%
Puccinia recondita
  C. V. (%), Fungicidal Activities against WLB at 10 ppm: 90%
  C. V. (%) WLR: 96%
Erysiphae graminis
  C. V. (%) BPM: 98%

## CNC(=O)C(=COC)c1ccccc1COc1cccc(OC(F)=Cc2cc(C)c(C)cc2C)c1 [Compound 22]
[1]
  C. V. (%) RCB: 0%
Botrytis cinerae
  C. V. (%) CGM: 0%
Phytophthora infestans
  C. V. (%) TLB: 25%
Rhizoctonia solani AG-1
  C. V. (%) RSB: 26%
Puccinia recondita
  C. V. (%) WLR: 0%
Erysiphae graminis
  C. V. (%) BPM: 0%

## CON=C(C(=O)OC)c1ccccc1COc1cccc(OC(F)=Cc2cc(C)c(C)cc2C)c1 [Compound 23]
[1]
  C. V. (%) RCB: 88%
Botrytis cinerae
  C. V. (%) CGM: 20%
Phytophthora infestans
  C. V. (%) TLB: 10%
Rhizoctonia solani AG-1
  C. V. (%) RSB: 90%
Puccinia recondita
  C. V. (%), Fungicidal Activities against WLB at 10 ppm: 91%
  C. V. (%) WLR: 93%
Erysiphae graminis
  C. V. (%), Fungicidal activities against TLB at 10 ppm: 91%
  C. V. (%) BPM: 100%

## COC(=O)C(=CSC)c1ccccc1COc1cccc(OC(F)=Cc2cc(C)c(C)cc2C)c1 [Compound 24]
[1]
  C. V. (%) RCB: 62%
Botrytis cinerae
  C. V. (%) CGM: 27%
Phytophthora infestans
  C. V. (%) TLB: 18%
Rhizoctonia solani AG-1
  C. V. (%) RSB: 46%
Puccinia recondita
  C. V. (%) WLR: 98%
Erysiphae graminis
  C. V. (%) BPM: 96%

## COC=C(C(=O)OC)c1ccccc1COc1cccc(OC(F)=Cc2cccc(OC)c2)c1 [Compound 25]
[1]
  C. V. (%) Fungicidal Activities against RCB at 10 ppm: 95%
  C. V. (%) Fungicidal Activities against RCB at 10 ppm (TABLE 6): 95%
  C. V. (%) RCB: 95%
Botrytis cinerae
  C. V. (%) CGM: 0%
Phytophthora infestans
  C. V. (%) TLB: 43%
Rhizoctonia solani AG-1
  C. V. (%) RSB: 92%
Puccinia recondita
  C. V. (%), Fungicidal Activities against WLB at 10 ppm: 99%
  C. V. (%) WLR: 100%
Erysiphae graminis
  C. V. (%), Fungicidal activities against TLB at 10 ppm: 91%
  C. V. (%) BPM: 98%

## CNC(=O)C(=COC)c1ccccc1COc1cccc(OC(F)=Cc2cccc(OC)c2)c1 [Compound 26]
[1]
  C. V. (%) RCB: 20%
Botrytis cinerae
  C. V. (%) CGM: 0%
Phytophthora infestans
  C. V. (%) TLB: 55%
Rhizoctonia solani AG-1
  C. V. (%) RSB: 35%
Puccinia recondita
  C. V. (%) WLR: 70%
Erysiphae graminis
  C. V. (%) BPM: 88%

## CON=C(C(=O)OC)c1ccccc1COc1cccc(OC(F)=Cc2cccc(OC)c2)c1 [Compound 27]
[1]
  C. V. (%) RCB: 100%
Botrytis cinerae
  C. V. (%) CGM: 0%
Phytophthora infestans
  C. V. (%) TLB: 80%
Rhizoctonia solani AG-1
  C. V. (%) RSB: 90%
Puccinia recondita
  C. V. (%) WLR: 86%
Erysiphae graminis
  C. V. (%), Fungicidal activities against TLB at 10 ppm: 97%
  C. V. (%) BPM: 96%

## COC(=O)C(=CSC)c1ccccc1COc1cccc(OC(F)=Cc2cccc(OC)c2)c1 [Compound 28]
[1]
  C. V. (%) RCB: 93%
Botrytis cinerae
  C. V. (%) CGM: 21%
Phytophthora infestans
  C. V. (%) TLB: 73%
Rhizoctonia solani AG-1
  C. V. (%) RSB: 70%
Puccinia recondita
  C. V. (%) WLR: 91%
Erysiphae graminis
  C. V. (%) BPM: 97%

## COC=C(C(=O)OC)c1ccccc1COc1cccc(OC(F)=Cc2ccc(OC)cc2)c1 [Compound 29]
[1]
  C. V. (%) Fungicidal Activities against RCB at 10 ppm: 92%
  C. V. (%) Fungicidal Activities against RCB at 10 ppm (TABLE 6): 92%
  C. V. (%) RCB: 93%
Botrytis cinerae
  C. V. (%) CGM: 28%
Phytophthora infestans
  C. V. (%) TLB: 56%
Rhizoctonia solani AG-1
  C. V. (%) RSB: 90%
Puccinia recondita
  C. V. (%), Fungicidal Activities against WLB at 10 ppm: 99%
  C. V. (%) WLR: 100%
Erysiphae graminis
  C. V. (%), Fungicidal activities against TLB at 10 ppm: 90%
  C. V. (%) BPM: 99%

## CNC(=O)C(=COC)c1ccccc1COc1cccc(OC(F)=Cc2ccc(OC)cc2)c1 [Compound 30]
[1]
  C. V. (%) RCB: 93%
Botrytis cinerae
  C. V. (%) CGM: 28%
Phytophthora infestans
  C. V. (%) TLB: 6%
Rhizoctonia solani AG-1
  C. V. (%) RSB: 5%
Puccinia recondita
  C. V. (%) WLR: 0%
Erysiphae graminis
  C. V. (%) BPM: 16%

## CON=C(C(=O)OC)c1ccccc1COc1cccc(OC(F)=Cc2ccc(OC)cc2)c1 [Compound 31]
[1]
  C. V. (%) RCB: 93%
Botrytis cinerae
  C. V. (%) CGM: 0%
Phytophthora infestans
  C. V. (%) TLB: 84%
Rhizoctonia solani AG-1
  C. V. (%) RSB: 30%
Puccinia recondita
  C. V. (%) WLR: 93%
Erysiphae graminis
  C. V. (%) BPM: 50%

## COC=C(C(=O)OC)c1ccccc1COc1cccc(OC(F)=Cc2ccc(Oc3ccccc3)cc2)c1 [Compound 32]
[1]
  C. V. (%) RCB: 30%
Botrytis cinerae
  C. V. (%) CGM: 20%
Phytophthora infestans
  C. V. (%) TLB: 24%
Rhizoctonia solani AG-1
  C. V. (%) RSB: 30%
Puccinia recondita
  C. V. (%) WLR: 88%
Erysiphae graminis
  C. V. (%) BPM: 90%

## CON=C(C(=O)OC)c1ccccc1COc1cccc(OC(F)=Cc2ccc(Oc3ccccc3)cc2)c1 [Compound 33]
[1]
  C. V. (%) RCB: 20%
Botrytis cinerae
  C. V. (%) CGM: 20%
Phytophthora infestans
  C. V. (%) TLB: 10%
Rhizoctonia solani AG-1
  C. V. (%) RSB: 5%
Puccinia recondita
  C. V. (%) WLR: 83%
Erysiphae graminis
  C. V. (%) BPM: 94%

## COC=C(C(=O)OC)c1ccccc1COc1cccc(OC(F)=Cc2cccc(F)c2)c1 [Compound 34]
[1]
  C. V. (%) Fungicidal Activities against RCB at 10 ppm: 100%
  C. V. (%) Fungicidal Activities against RCB at 10 ppm (TABLE 6): 100%
  C. V. (%) RCB: 99%
Botrytis cinerae
  C. V. (%) CGM: 0%
Phytophthora infestans
  C. V. (%) TLB: 75%
Rhizoctonia solani AG-1
  C. V. (%) RSB: 95%
Puccinia recondita
  C. V. (%), Fungicidal Activities against WLB at 10 ppm: 100%
  C. V. (%) WLR: 98%
Erysiphae graminis
  C. V. (%), Fungicidal activities against TLB at 10 ppm: 100%
  C. V. (%) BPM: 100%

## CNC(=O)C(=COC)c1ccccc1COc1cccc(OC(F)=Cc2cccc(F)c2)c1 [Compound 35]
[1]
  C. V. (%) RCB: 15%
Botrytis cinerae
  C. V. (%) CGM: 35%
Phytophthora infestans
  C. V. (%) TLB: 35%
Rhizoctonia solani AG-1
  C. V. (%) RSB: 30%
Puccinia recondita
  C. V. (%) WLR: 40%
Erysiphae graminis
  C. V. (%) BPM: 58%

## COC=C(C(=O)OC)c1ccccc1COc1cccc(OC(F)=Cc2ccc(F)cc2)c1 [Compound 36]
[1]
  C. V. (%) Fungicidal Activities against RCB at 10 ppm: 94%
  C. V. (%) Fungicidal Activities against RCB at 10 ppm (TABLE 6): 94%
  C. V. (%) RCB: 100%
Botrytis cinerae
  C. V. (%) CGM: 0%
Phytophthora infestans
  C. V. (%) TLB: 66%
Rhizoctonia solani AG-1
  C. V. (%) RSB: 95%
Puccinia recondita
  C. V. (%), Fungicidal Activities against WLB at 10 ppm: 100%
  C. V. (%) WLR: 100%
Erysiphae graminis
  C. V. (%), Fungicidal activities against TLB at 10 ppm: 100%
  C. V. (%) BPM: 99%

## COC=C(C(=O)OC)c1ccccc1COc1cccc(OC(F)=Cc2ccc(Cl)cc2)c1 [Compound 37]
[1]
  C. V. (%) Fungicidal Activities against RCB at 10 ppm: 100%
  C. V. (%) Fungicidal Activities against RCB at 10 ppm (TABLE 6): 100%
  C. V. (%) RCB: 95%
Botrytis cinerae
  C. V. (%) CGM: 58%
Phytophthora infestans
  C. V. (%) TLB: 93%
Rhizoctonia solani AG-1
  C. V. (%) RSB: 45%
Puccinia recondita
  C. V. (%), Fungicidal Activities against WLB at 10 ppm: 97%
  C. V. (%) WLR: 98%
Erysiphae graminis
  C. V. (%), Fungicidal activities against TLB at 10 ppm: 100%
  C. V. (%) BPM: 98%

## CNC(=O)C(=COC)c1ccccc1COc1cccc(OC(F)=Cc2ccc(Cl)cc2)c1 [Compound 38]
[1]
  C. V. (%) RCB: 33%
Botrytis cinerae
  C. V. (%) CGM: 15%
Phytophthora infestans
  C. V. (%) TLB: 33%
Rhizoctonia solani AG-1
  C. V. (%) RSB: 5%
Puccinia recondita
  C. V. (%) WLR: 0%
Erysiphae graminis
  C. V. (%) BPM: 8%

## CON=C(C(=O)OC)c1ccccc1COc1cccc(OC(F)=Cc2ccc(Cl)cc2)c1 [Compound 39]
[1]
  C. V. (%) RCB: 100%
Botrytis cinerae
  C. V. (%) CGM: 15%
Phytophthora infestans
  C. V. (%) TLB: 80%
Rhizoctonia solani AG-1
  C. V. (%) RSB: 90%
Puccinia recondita
  C. V. (%) WLR: 86%
Erysiphae graminis
  C. V. (%), Fungicidal activities against TLB at 10 ppm: 95%
  C. V. (%) BPM: 96%
